Assay results taken from ChEMBL document CHEMBL5104131, “Pyrimidine-conjugated fluoroquinolones as new potential broad-spectrum antibacterial agents” (Bioorg Med Chem Lett, 2022).
≈ marks a conversion by molar mass, not a printed value.

Assays:
Klebsiella pneumoniae = experiment: Antibacterial activity against Klebsiella pneumoniae assessed as bacterial growth inhibition by serial dilution method; assay type: functional
Aspergillus fumigatus = experiment: Antifungal activity against Aspergillus fumigatus assessed as inhibition of fungal growth; assay type: functional
Pseudomonas aeruginosa [1] = experiment: Antibacterial activity against Pseudomonas aeruginosa ATCC 27853 assessed as bacterial growth inhibition by serial dilution method; assay type: functional
Staphylococcus aureus [2] = experiment: Antibacterial activity against Staphylococcus aureus assessed as bacterial growth inhibition by serial dilution method; assay type: functional
Enterococcus faecalis = experiment: Antibacterial activity against Enterococcus faecalis assessed as bacterial growth inhibition by serial dilution method; assay type: functional
Acinetobacter baumannii = experiment: Antibacterial activity against Acinetobacter baumannii assessed as bacterial growth inhibition by serial dilution method; assay type: functional
Staphylococcus aureus [3] = experiment: Antibacterial activity against Staphylococcus aureus ATCC 29213 assessed as bacterial growth inhibition by serial dilution method; assay type: functional
Staphylococcus aureus [4] = experiment: Antibacterial activity against Staphylococcus aureus ATCC 25923 assessed as bacterial growth inhibition by serial dilution method; assay type: functional
Staphylococcus aureus [5] = experiment: Antibacterial activity against methicillin-resistant Staphylococcus aureus N315 assessed as bacterial growth inhibition by serial dilution method; assay type: functional
Escherichia coli [6] = experiment: Antibacterial activity against Escherichia coli ATCC 25922 assessed as bacterial growth inhibition by serial dilution method; assay type: functional
Escherichia coli [7] = experiment: Antibacterial activity against Escherichia coli assessed as bacterial growth inhibition by serial dilution method; assay type: functional
Pseudomonas aeruginosa [8] = experiment: Antibacterial activity against Pseudomonas aeruginosa assessed as bacterial growth inhibition by serial dilution method; assay type: functional
Candida tropicalis = experiment: Antifungal activity against Candida tropicalis assessed as inhibition of fungal growth; assay type: functional
Staphylococcus aureus [9] = experiment: Potency index, ratio of ciprofloxacin MIC to test compound MIC for antibacterial activity against methicillin-resistant Staphylococcus aureus N315 assessed as bacterial growth inhibition by serial dilution method; assay type: functional
Staphylococcus aureus [10] = experiment: Potency index, ratio of norfloxacin MIC to test compound MIC for antibacterial activity against methicillin-resistant Staphylococcus aureus N315 assessed as bacterial growth inhibition by serial dilution method; assay type: functional
[11] = Cytotoxicity against human HaCaT cells assessed as cell viability at 50 ug/ml by CCK-8 assay relative to control; assay type: toxicity, cell-based; settings: at 50 µg/mL, read-out: Activity
[12] = Cytotoxicity against human HaCaT cells assessed as cell viability at 12.5 ug/ml by CCK-8 assay relative to control; assay type: toxicity, cell-based; settings: at 12.5 µg/mL, read-out: Activity

| Compound | MIC (Klebsiella pneumoniae) [µg/mL] | MIC (Aspergillus fumigatus) [µg/mL] | MIC (Pseudomonas aeruginosa [1]) [µg/mL] | MIC (Staphylococcus aureus [2]) [µg/mL] | MIC (Enterococcus faecalis) [µg/mL] | MIC (Acinetobacter baumannii) [µg/mL] | MIC (Staphylococcus aureus [3]) [µg/mL] | MIC (Staphylococcus aureus [4]) [µg/mL] | MIC (Staphylococcus aureus [5]) [µg/mL] | MIC (Escherichia coli [6]) [µg/mL] | MIC (Escherichia coli [7]) [µg/mL] | MIC (Pseudomonas aeruginosa [8]) [µg/mL] | MIC (Candida tropicalis) [µg/mL] | Ratio (Staphylococcus aureus [9]) | Ratio (Staphylococcus aureus [10]) | viability at 50 ug/ml [11] [%] | viability at 12.5 ug/ml [12] [%] |
| --- | --- | --- | --- | --- | --- | --- | --- | --- | --- | --- | --- | --- | --- | --- | --- | --- | --- |
| CCn1cc(C(=O)O)c(=O)c2cc(F)c(N3CCN(c4ncccn4)CC3)cc21 | 4 (≈ 10.1 µM) | 2 (≈ 5.03 µM) | 128 (≈ 322 µM) | 64 (≈ 161 µM) | 8 (≈ 20.1 µM) | 64 (≈ 161 µM) | 32 (≈ 80.5 µM) | 8 (≈ 20.1 µM) | 2 (≈ 5.03 µM) | 64 (≈ 161 µM) | 16 (≈ 40.3 µM) | 16 (≈ 40.3 µM) |  |  |  |  |  |
| CCc1cnc(N2CCN(c3cc4c(cc3F)c(=O)c(C(=O)O)cn4C3CC3)CC2)nc1 | 256 (≈ 585 µM) |  | 64 (≈ 146 µM) | 1 (≈ 2.29 µM) | 64 (≈ 146 µM) | 64 (≈ 146 µM) | 64 (≈ 146 µM) | 8 (≈ 18.3 µM) | 128 (≈ 293 µM) | 4 (≈ 9.14 µM) | 8 (≈ 18.3 µM) | 4 (≈ 9.14 µM) | 2 (≈ 4.57 µM) |  |  |  |  |
| CCn1cc(C(=O)O)c(=O)c2cc(F)c(N3CCN(c4ncc(C)cn4)CC3)cc21 | 2 (≈ 4.86 µM) | 2 (≈ 4.86 µM) | 128 (≈ 311 µM) | 4 (≈ 9.72 µM) | 2 (≈ 4.86 µM) | 128 (≈ 311 µM) | 4 (≈ 9.72 µM) | 64 (≈ 156 µM) | 8 (≈ 19.4 µM) | 2 (≈ 4.86 µM) | 16 (≈ 38.9 µM) | 4 (≈ 9.72 µM) |  |  |  |  |  |
| CCc1cnc(N2CCN(c3cc4c(cc3F)c(=O)c(C(=O)O)cn4CC)CC2)nc1 | 2 (≈ 4.7 µM) |  | 128 (≈ 301 µM) | 8 (≈ 18.8 µM) | 2 (≈ 4.7 µM) | 128 (≈ 301 µM) | 64 (≈ 150 µM) | 2 (≈ 4.7 µM) | 2 (≈ 4.7 µM) | 1 (≈ 2.35 µM) | 16 (≈ 37.6 µM) | 2 (≈ 4.7 µM) |  |  |  |  |  |
| Cc1ccnc(N2CCN(c3cc4c(cc3F)c(=O)c(C(=O)O)cn4C3CC3)CC2)n1 | 64 (≈ 151 µM) |  | 64 (≈ 151 µM) | 256 (≈ 605 µM) | 64 (≈ 151 µM) | 2 (≈ 4.72 µM) | 32 (≈ 75.6 µM) | 4 (≈ 9.45 µM) | 64 (≈ 151 µM) | 8 (≈ 18.9 µM) | 64 (≈ 151 µM) | 64 (≈ 151 µM) |  |  |  |  |  |
| O=C(O)c1cn(C2CC2)c2cc(N3CCN(c4ncc(F)cn4)CC3)c(F)cc2c1=O | 128 (≈ 299 µM) |  | 256 (≈ 599 µM) | 8 (≈ 18.7 µM) | 8 (≈ 18.7 µM) | > 256 | 32 (≈ 74.9 µM) | 8 (≈ 18.7 µM) | 1 (≈ 2.34 µM) | 8 (≈ 18.7 µM) | 128 (≈ 299 µM) | 64 (≈ 150 µM) |  | 2 | 8 |  |  |
| CCn1cc(C(=O)O)c(=O)c2cc(F)c(N3CCNCC3)cc21 [NORFLOXACIN] | 4 (≈ 12.5 µM) |  | 4 (≈ 12.5 µM) | 4 (≈ 12.5 µM) | 4 (≈ 12.5 µM) | 2 (≈ 6.26 µM) | 4 (≈ 12.5 µM) | 2 (≈ 6.26 µM) | 8 (≈ 25.1 µM) | 8 (≈ 25.1 µM) | 8 (≈ 25.1 µM) | 4 (≈ 12.5 µM) |  |  |  |  |  |
| CCn1cc(C(=O)O)c(=O)c2cc(F)c(N3CCN(c4nccc(C(F)(F)F)n4)CC3)cc21 | 128 (≈ 275 µM) |  | > 256 | > 256 | 64 (≈ 138 µM) | 128 (≈ 275 µM) | 128 (≈ 275 µM) | 256 (≈ 550 µM) | > 256 | 256 (≈ 550 µM) | > 256 | 128 (≈ 275 µM) |  |  |  |  |  |
| O=C(O)c1cn(C2CC2)c2cc(N3CCNCC3)c(F)cc2c1=O [CIPROFLOXACIN] | 2 (≈ 6.04 µM) |  | 1 (≈ 3.02 µM) | 2 (≈ 6.04 µM) | 1 (≈ 3.02 µM) |  | 0.5 (≈ 1.51 µM) | 2 (≈ 6.04 µM) | 2 (≈ 6.04 µM) |  |  |  |  |  |  |  |  |
| Cc1cnc(N2CCN(c3cc4c(cc3F)c(=O)c(C(=O)O)cn4C3CC3)CC2)nc1 | > 256 |  | 256 (≈ 605 µM) | 128 (≈ 302 µM) | 4 (≈ 9.45 µM) | 128 (≈ 302 µM) | 64 (≈ 151 µM) | 2 (≈ 4.72 µM) | 256 (≈ 605 µM) | 8 (≈ 18.9 µM) | 64 (≈ 151 µM) | 2 (≈ 4.72 µM) |  |  |  |  |  |
| O=C(O)c1cn(C2CC2)c2cc(N3CCN(c4ncc(Br)cn4)CC3)c(F)cc2c1=O | 128 (≈ 262 µM) |  | 32 (≈ 65.5 µM) | 16 (≈ 32.8 µM) | 128 (≈ 262 µM) | 32 (≈ 65.5 µM) | 8 (≈ 16.4 µM) | 16 (≈ 32.8 µM) | 128 (≈ 262 µM) | 128 (≈ 262 µM) | 64 (≈ 131 µM) | 16 (≈ 32.8 µM) |  |  |  |  |  |
| CCn1cc(C(=O)O)c(=O)c2cc(F)c(N3CCN(c4ncc(OC)cn4)CC3)cc21 | 64 (≈ 150 µM) | 2 (≈ 4.68 µM) | 128 (≈ 299 µM) | 2 (≈ 4.68 µM) | 1 (≈ 2.34 µM) | 128 (≈ 299 µM) | 8 (≈ 18.7 µM) | 32 (≈ 74.9 µM) | 1 (≈ 2.34 µM) | 2 (≈ 4.68 µM) | 64 (≈ 150 µM) | 32 (≈ 74.9 µM) |  |  |  |  |  |
| OC(Cn1cncn1)(Cn1cncn1)c1ccc(F)cc1F [FLUCONAZOLE] |  | 256 (≈ 836 µM) |  |  |  |  |  |  |  |  |  |  |  |  |  |  |  |
| CCn1cc(C(=O)O)c(=O)c2cc(F)c(N3CCN(c4ncc(F)cn4)CC3)cc21 | 128 (≈ 308 µM) |  | 256 (≈ 616 µM) | 4 (≈ 9.63 µM) | 4 (≈ 9.63 µM) | > 256 | 16 (≈ 38.5 µM) | 16 (≈ 38.5 µM) | 64 (≈ 154 µM) | 128 (≈ 308 µM) | 16 (≈ 38.5 µM) | 32 (≈ 77 µM) |  |  |  |  |  |
| O=C(O)c1cn(C2CC2)c2cc(N3CCN(c4ncccn4)CC3)c(F)cc2c1=O | 64 (≈ 156 µM) | 1 (≈ 2.44 µM) | 32 (≈ 78.2 µM) | 4 (≈ 9.77 µM) | 2 (≈ 4.88 µM) | > 256 | 32 (≈ 78.2 µM) | 64 (≈ 156 µM) | 16 (≈ 39.1 µM) | 1 (≈ 2.44 µM) | 8 (≈ 19.5 µM) | 8 (≈ 19.5 µM) |  |  |  | 70 | > 90 |
| CCn1cc(C(=O)O)c(=O)c2cc(F)c(N3CCN(c4ncc(Br)cn4)CC3)cc21 | 256 (≈ 537 µM) |  | 64 (≈ 134 µM) | 8 (≈ 16.8 µM) | 64 (≈ 134 µM) | 64 (≈ 134 µM) | 64 (≈ 134 µM) | 64 (≈ 134 µM) | 128 (≈ 269 µM) | 128 (≈ 269 µM) | 64 (≈ 134 µM) | 8 (≈ 16.8 µM) |  |  |  |  |  |
| CCn1cc(C(=O)O)c(=O)c2cc(F)c(N3CCN(c4nccc(C)n4)CC3)cc21 | 4 (≈ 9.72 µM) |  | 16 (≈ 38.9 µM) | 4 (≈ 9.72 µM) | 1 (≈ 2.43 µM) | 256 (≈ 622 µM) | 16 (≈ 38.9 µM) | 4 (≈ 9.72 µM) | 32 (≈ 77.8 µM) | 1 (≈ 2.43 µM) | 64 (≈ 156 µM) | 128 (≈ 311 µM) |  |  |  |  |  |
| O=C(O)c1cn(C2CC2)c2cc(N3CCN(c4nccc(C(F)(F)F)n4)CC3)c(F)cc2c1=O | 128 (≈ 268 µM) |  | 128 (≈ 268 µM) | 128 (≈ 268 µM) | 8 (≈ 16.8 µM) | > 256 | 64 (≈ 134 µM) | 128 (≈ 268 µM) | 64 (≈ 134 µM) | 32 (≈ 67 µM) | 128 (≈ 268 µM) | 64 (≈ 134 µM) |  |  |  |  |  |
